{"source": "patent US20240376108A1", "about": "“SALT AND CRYSTAL FORM OF PYRAZOLE-CONTAINING POLYCYCLIC DERIVATIVE, AND PREPARATION METHOD THEREFOR AND USE THEREOF” (Shanghai Hansoh Biomedical Co., Ltd., priority 2021, published 2024)", "key": {"[1]": {"test": "Hygroscopicity experiment (DVS)", "assay_type": "physicochemical", "settings": "25° C.", "from_the_text": "7.1 Hygroscopicity experiment of crystal forms of different salts of compound 2-(2-cyano-5-oxo-8-(trifluoromethyl)pyrazolo[1,5-a]pyrido[3,2-e]pyrimidin-4(5H)-yl)-N-(5-fluoropyridin-2-yl)acetamide\n7.1.1 Experimental objective: To investigate the hygroscopicity of crystal forms of different salts of compound 2-(2-cyano-5-oxo-8-(trifluoromethyl)pyrazolo[1,5-a]pyrido[3,2-e]pyrimidin-4(5H)-yl)-N-(5-fluoropyridin-2-yl)acetamide at different relative humidity, so as to provide a basis for storage.\n7.1.2 Experimental protocol: Crystal forms of different salts of the compound were placed in saturated water vapor with different relative humidity to achieve dynamic equilibrium between the compound and water vapor, and the percentage of hygroscopic weight gain of the compound after equilibrium was calculated."}, "[2]": {"test": "Solubility experiment in different media", "assay_type": "physicochemical", "settings": "room temperature, 24 hours", "description": "The vials were placed on a spin mixer overnight at room temperature. After 24 hours, the sample solution was filtered through a 0.45 μm mixed aqueous fiber membrane. The content of the compound in the filtrate was determined by HPLC. [table]"}, "[3]": {"settings": "Cycle 1, target relative humidity 0.0%"}, "[4]": {"settings": "Cycle 1, target relative humidity 10.0%"}, "[5]": {"settings": "Cycle 1, target relative humidity 20.0%"}, "[6]": {"settings": "Cycle 1, target relative humidity 30.0%"}, "[7]": {"settings": "Cycle 1, target relative humidity 40.0%"}, "[8]": {"settings": "Cycle 1, target relative humidity 50.0%"}, "[9]": {"settings": "Cycle 1, target relative humidity 60.0%"}, "[10]": {"settings": "Cycle 1, target relative humidity 70.0%"}, "[11]": {"settings": "Cycle 1, target relative humidity 80.0%"}, "[12]": {"settings": "Cycle 1, target relative humidity 90.0%"}, "[13]": {"settings": "Cycle 1, target relative humidity 95.0%"}, "[14]": {"settings": "Cycle 2, target relative humidity 0.0%"}, "[15]": {"settings": "Cycle 2, target relative humidity 10.0%"}, "[16]": {"settings": "Cycle 2, target relative humidity 20.0%"}, "[17]": {"settings": "Cycle 2, target relative humidity 30.0%"}, "[18]": {"settings": "Cycle 2, target relative humidity 40.0%"}, "[19]": {"settings": "Cycle 2, target relative humidity 50.0%"}, "[20]": {"settings": "Cycle 2, target relative humidity 60.0%"}, "[21]": {"settings": "Cycle 2, target relative humidity 70.0%"}, "[22]": {"settings": "Cycle 2, target relative humidity 80.0%"}, "[23]": {"settings": "Cycle 2, target relative humidity 90.0%"}, "[24]": {"settings": "Cycle 2, target relative humidity 95.0%"}}}
{"smiles": "Cl.N#Cc1cc2n(CC(=O)Nc3ccc(F)cn3)c(=O)c3ccc(C(F)(F)F)nc3n2n1", "note": "[Hydrochloride (crystal form A), 2-(2-cyano-5-oxo-8-(trifluoromethyl)pyrazolo[1,5-a]pyrido[3,2-e]pyrimidin-4(5H)-yl)-N-(5-fluoropyridin-2-yl)acetamide hydrochloride]", "values": [{"measurement": "% percentage of mass change, Desorption", "setting": "[1]; [3]", "result": "−0.041", "unit": "%"}, {"measurement": "% percentage of mass change, Sorption", "setting": "[1]; [3]", "result": 0.000, "unit": "%"}, {"measurement": "% percentage of mass change, Desorption", "setting": "[1]; [4]", "result": 0.130, "unit": "%"}, {"measurement": "% percentage of mass change, Sorption", "setting": "[1]; [4]", "result": 0.131, "unit": "%"}, {"measurement": "% percentage of mass change, Desorption", "setting": "[1]; [5]", "result": 0.313, "unit": "%"}, {"measurement": "% percentage of mass change, Sorption", "setting": "[1]; [5]", "result": 0.275, "unit": "%"}, {"measurement": "% percentage of mass change, Desorption", "setting": "[1]; [6]", "result": 7.258, "unit": "%"}, {"measurement": "% percentage of mass change, Sorption", "setting": "[1]; [6]", "result": 4.325, "unit": "%"}, {"measurement": "% percentage of mass change, Desorption", "setting": "[1]; [7]", "result": 7.532, "unit": "%"}, {"measurement": "% percentage of mass change, Sorption", "setting": "[1]; [7]", "result": 7.346, "unit": "%"}, {"measurement": "% percentage of mass change, Desorption", "setting": "[1]; [8]", "result": 7.722, "unit": "%"}, {"measurement": "% percentage of mass change, Sorption", "setting": "[1]; [8]", "result": 7.466, "unit": "%"}, {"measurement": "% percentage of mass change, Desorption", "setting": "[1]; [9]", "result": 7.825, "unit": "%"}, {"measurement": "% percentage of mass change, Sorption", "setting": "[1]; [9]", "result": 7.581, "unit": "%"}, {"measurement": "% percentage of mass change, Desorption", "setting": "[1]; [10]", "result": 7.898, "unit": "%"}, {"measurement": "% percentage of mass change, Sorption", "setting": "[1]; [10]", "result": 7.709, "unit": "%"}, {"measurement": "% percentage of mass change, Desorption", "setting": "[1]; [11]", "result": 7.968, "unit": "%"}, {"measurement": "% percentage of mass change, Sorption", "setting": "[1]; [11]", "result": 7.840, "unit": "%"}, {"measurement": "% percentage of mass change, Desorption", "setting": "[1]; [12]", "result": 8.071, "unit": "%"}, {"measurement": "% percentage of mass change, Sorption", "setting": "[1]; [12]", "result": 8.018, "unit": "%"}, {"measurement": "% percentage of mass change, Desorption", "setting": "[1]; [13]", "result": 8.141, "unit": "%"}, {"measurement": "% percentage of mass change, Sorption", "setting": "[1]; [13]", "result": 8.141, "unit": "%"}, {"measurement": "% percentage of mass change, Desorption", "setting": "[1]; [14]", "result": "−0.062", "unit": "%"}, {"measurement": "% percentage of mass change, Sorption", "setting": "[1]; [14]", "result": "−0.041", "unit": "%"}, {"measurement": "% percentage of mass change, Desorption", "setting": "[1]; [15]", "result": 0.098, "unit": "%"}, {"measurement": "% percentage of mass change, Sorption", "setting": "[1]; [15]", "result": 0.095, "unit": "%"}, {"measurement": "% percentage of mass change, Desorption", "setting": "[1]; [16]", "result": 0.273, "unit": "%"}, {"measurement": "% percentage of mass change, Sorption", "setting": "[1]; [16]", "result": 0.236, "unit": "%"}, {"measurement": "% percentage of mass change, Desorption", "setting": "[1]; [17]", "result": 7.191, "unit": "%"}, {"measurement": "% percentage of mass change, Sorption", "setting": "[1]; [17]", "result": 5.345, "unit": "%"}, {"measurement": "% percentage of mass change, Desorption", "setting": "[1]; [18]", "result": 7.462, "unit": "%"}, {"measurement": "% percentage of mass change, Sorption", "setting": "[1]; [18]", "result": 7.269, "unit": "%"}, {"measurement": "% percentage of mass change, Desorption", "setting": "[1]; [19]", "result": 7.649, "unit": "%"}, {"measurement": "% percentage of mass change, Sorption", "setting": "[1]; [19]", "result": 7.383, "unit": "%"}, {"measurement": "% percentage of mass change, Desorption", "setting": "[1]; [20]", "result": 7.738, "unit": "%"}, {"measurement": "% percentage of mass change, Sorption", "setting": "[1]; [20]", "result": 7.492, "unit": "%"}, {"measurement": "% percentage of mass change, Desorption", "setting": "[1]; [21]", "result": 7.806, "unit": "%"}, {"measurement": "% percentage of mass change, Sorption", "setting": "[1]; [21]", "result": 7.610, "unit": "%"}, {"measurement": "% percentage of mass change, Desorption", "setting": "[1]; [22]", "result": 7.872, "unit": "%"}, {"measurement": "% percentage of mass change, Sorption", "setting": "[1]; [22]", "result": 7.745, "unit": "%"}, {"measurement": "% percentage of mass change, Desorption", "setting": "[1]; [23]", "result": 7.972, "unit": "%"}, {"measurement": "% percentage of mass change, Sorption", "setting": "[1]; [23]", "result": 7.925, "unit": "%"}, {"measurement": "% percentage of mass change, Desorption", "setting": "[1]; [24]", "result": 8.047, "unit": "%"}, {"measurement": "% percentage of mass change, Sorption", "setting": "[1]; [24]", "result": 8.047, "unit": "%"}]}
{"smiles": "N#Cc1cc2n(CC(=O)Nc3ccc(F)cn3)c(=O)c3ccc(C(F)(F)F)nc3n2n1", "note": "[crystal form II of the free base, 2-(2-cyano-5-oxo-8-(trifluoromethyl)pyrazolo[1,5-a]pyrido[3,2-e]pyrimidin-4(5H)-yl)-N-(5-fluoropyridin-2-yl)acetamide free base]", "values": [{"measurement": "Solubility", "setting": "[2]; FaSSGF", "result": 0.7, "unit": "µg/mL"}, {"measurement": "Solubility", "setting": "[2]; FaSSIF", "result": 1.1, "unit": "µg/mL"}, {"measurement": "Solubility", "setting": "[2]; FeSSIF", "result": 2.5, "unit": "µg/mL"}, {"measurement": "Solubility", "setting": "[2]; H2O", "result": 0.6, "unit": "µg/mL"}, {"measurement": "Solubility", "setting": "[2]; USP Buffer pH 1", "result": 0.6, "unit": "µg/mL"}, {"measurement": "Solubility", "setting": "[2]; USP Buffer pH 2", "result": 0.6, "unit": "µg/mL"}, {"measurement": "Solubility", "setting": "[2]; USP Buffer pH 3", "result": 1.1, "unit": "µg/mL"}, {"measurement": "Solubility", "setting": "[2]; USP Buffer pH 4", "result": 1, "unit": "µg/mL"}, {"measurement": "Solubility", "setting": "[2]; USP Buffer pH 5", "result": 0.8, "unit": "µg/mL"}, {"measurement": "Solubility", "setting": "[2]; USP Buffer pH 6", "result": 0.6, "unit": "µg/mL"}, {"measurement": "Solubility", "setting": "[2]; USP Buffer pH 7", "result": 0.5, "unit": "µg/mL"}, {"measurement": "Solubility", "setting": "[2]; USP Buffer pH 8", "result": 0.5, "unit": "µg/mL"}]}
